From ChEMBL document CHEMBL1201862, “PubChem BioAssay data set” (2004)
Activity calls are given as the source filed them.

Experiments:
[1] = molecular target: Beta-adrenergic receptor kinase 1 (Homo sapiens, UniProt P25098); experiment: aptamer displacement from bead-bound GRK2 – biochemical, cherry pick 1, bead flow cytometry, dose response (AID 504500)
[2] = molecular target: T1, Carboxy-terminal domain RNA polymerase II polypeptide A small phosphatase 1 (Homo sapiens, UniProt Q9GZU7); experiment: CTDSP1 inhibitors, concentration-response, biochemical, absorbance readout, ultra-high-throughput screen actives (AID 540297); assay type: functional
T1 sequence (Q9GZU7 whole entry): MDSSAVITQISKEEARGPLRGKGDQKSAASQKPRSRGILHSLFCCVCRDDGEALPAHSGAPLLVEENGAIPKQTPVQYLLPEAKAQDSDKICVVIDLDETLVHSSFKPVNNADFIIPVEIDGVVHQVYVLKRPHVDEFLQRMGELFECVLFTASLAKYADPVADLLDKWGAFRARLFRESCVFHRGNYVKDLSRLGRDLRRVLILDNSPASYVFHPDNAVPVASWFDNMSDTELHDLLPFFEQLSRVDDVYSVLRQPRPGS

[3] = molecular target: DNA dC->dU-editing enzyme APOBEC-3G (Homo sapiens, UniProt Q9HC16); experiment: Dose Response confirmation of small molecule APOBEC3G DNA Deaminase Inhibitors via a fluorescence-based single-stranded DNA deaminase assay. [Related pubchem assays (depositor defined):AID493012, AID493028]; assay type: functional
Chain of DNA dC->dU-editing enzyme APOBEC-3G (Q9HC16 whole entry): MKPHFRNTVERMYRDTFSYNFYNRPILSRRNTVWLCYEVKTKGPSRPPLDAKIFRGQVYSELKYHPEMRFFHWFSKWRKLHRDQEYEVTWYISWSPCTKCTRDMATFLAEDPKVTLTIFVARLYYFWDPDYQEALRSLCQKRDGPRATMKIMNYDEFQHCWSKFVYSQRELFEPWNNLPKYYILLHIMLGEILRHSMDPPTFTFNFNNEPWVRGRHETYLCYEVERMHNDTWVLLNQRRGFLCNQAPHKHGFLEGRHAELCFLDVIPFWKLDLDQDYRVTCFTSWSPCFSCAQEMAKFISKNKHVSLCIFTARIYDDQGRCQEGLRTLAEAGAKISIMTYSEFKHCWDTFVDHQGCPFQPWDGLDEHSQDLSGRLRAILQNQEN

[4] = molecular target: T2, Apoptotic protease-activating factor 1 (Homo sapiens, UniProt O14727); experiment: activation of Apaf-1 mediated apoptosis – fluorescent, uHTS hits, dose response (AID 588554); assay type: functional
T2 sequence (O14727 whole entry): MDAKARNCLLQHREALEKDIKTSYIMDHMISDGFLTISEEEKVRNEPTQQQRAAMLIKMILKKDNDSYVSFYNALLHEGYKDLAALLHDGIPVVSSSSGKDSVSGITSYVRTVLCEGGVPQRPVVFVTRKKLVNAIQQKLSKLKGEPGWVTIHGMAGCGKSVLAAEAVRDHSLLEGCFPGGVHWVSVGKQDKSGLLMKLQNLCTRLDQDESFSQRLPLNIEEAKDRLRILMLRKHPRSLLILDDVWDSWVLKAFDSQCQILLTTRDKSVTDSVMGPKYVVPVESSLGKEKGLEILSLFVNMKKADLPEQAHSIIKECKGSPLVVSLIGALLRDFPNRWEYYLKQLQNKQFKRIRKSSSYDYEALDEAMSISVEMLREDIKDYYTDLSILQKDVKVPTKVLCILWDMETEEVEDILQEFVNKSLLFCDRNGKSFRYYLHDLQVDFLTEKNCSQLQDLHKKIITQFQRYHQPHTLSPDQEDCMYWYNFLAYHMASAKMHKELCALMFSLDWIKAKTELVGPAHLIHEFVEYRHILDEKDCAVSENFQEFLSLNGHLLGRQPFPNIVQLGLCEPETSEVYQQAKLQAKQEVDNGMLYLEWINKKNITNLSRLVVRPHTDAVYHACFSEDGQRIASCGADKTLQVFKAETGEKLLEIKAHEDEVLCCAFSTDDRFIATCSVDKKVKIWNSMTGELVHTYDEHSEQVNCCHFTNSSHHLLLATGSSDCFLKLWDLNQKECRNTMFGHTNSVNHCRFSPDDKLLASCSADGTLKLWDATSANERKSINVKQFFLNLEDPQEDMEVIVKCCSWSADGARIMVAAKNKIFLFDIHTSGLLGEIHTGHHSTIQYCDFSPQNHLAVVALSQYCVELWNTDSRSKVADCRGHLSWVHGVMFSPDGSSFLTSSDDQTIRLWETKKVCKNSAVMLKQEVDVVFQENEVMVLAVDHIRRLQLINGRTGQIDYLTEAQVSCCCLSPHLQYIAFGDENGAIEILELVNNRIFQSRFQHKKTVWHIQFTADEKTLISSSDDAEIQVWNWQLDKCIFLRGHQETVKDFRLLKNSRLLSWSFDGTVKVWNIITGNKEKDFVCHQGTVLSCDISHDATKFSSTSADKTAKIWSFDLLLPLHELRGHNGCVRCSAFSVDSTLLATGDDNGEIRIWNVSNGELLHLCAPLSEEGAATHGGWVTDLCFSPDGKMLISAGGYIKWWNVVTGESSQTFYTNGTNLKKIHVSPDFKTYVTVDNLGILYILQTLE

[5] = molecular target: DNA dC->dU-editing enzyme APOBEC-3A (Homo sapiens, UniProt P31941); experiment: A3A deaminase inhibition for selectivity – biochemical, dose response (AID 504722); assay type: functional
[6] = molecular target: T3, Voltage-gated N-type calcium channel alpha-1B subunit/Amyloid beta A4 precursor protein-binding family A member 1 (Homo sapiens, UniProt Q00975+Q02410); assay type: protein assay
T3 sequence (Q00975 whole entry): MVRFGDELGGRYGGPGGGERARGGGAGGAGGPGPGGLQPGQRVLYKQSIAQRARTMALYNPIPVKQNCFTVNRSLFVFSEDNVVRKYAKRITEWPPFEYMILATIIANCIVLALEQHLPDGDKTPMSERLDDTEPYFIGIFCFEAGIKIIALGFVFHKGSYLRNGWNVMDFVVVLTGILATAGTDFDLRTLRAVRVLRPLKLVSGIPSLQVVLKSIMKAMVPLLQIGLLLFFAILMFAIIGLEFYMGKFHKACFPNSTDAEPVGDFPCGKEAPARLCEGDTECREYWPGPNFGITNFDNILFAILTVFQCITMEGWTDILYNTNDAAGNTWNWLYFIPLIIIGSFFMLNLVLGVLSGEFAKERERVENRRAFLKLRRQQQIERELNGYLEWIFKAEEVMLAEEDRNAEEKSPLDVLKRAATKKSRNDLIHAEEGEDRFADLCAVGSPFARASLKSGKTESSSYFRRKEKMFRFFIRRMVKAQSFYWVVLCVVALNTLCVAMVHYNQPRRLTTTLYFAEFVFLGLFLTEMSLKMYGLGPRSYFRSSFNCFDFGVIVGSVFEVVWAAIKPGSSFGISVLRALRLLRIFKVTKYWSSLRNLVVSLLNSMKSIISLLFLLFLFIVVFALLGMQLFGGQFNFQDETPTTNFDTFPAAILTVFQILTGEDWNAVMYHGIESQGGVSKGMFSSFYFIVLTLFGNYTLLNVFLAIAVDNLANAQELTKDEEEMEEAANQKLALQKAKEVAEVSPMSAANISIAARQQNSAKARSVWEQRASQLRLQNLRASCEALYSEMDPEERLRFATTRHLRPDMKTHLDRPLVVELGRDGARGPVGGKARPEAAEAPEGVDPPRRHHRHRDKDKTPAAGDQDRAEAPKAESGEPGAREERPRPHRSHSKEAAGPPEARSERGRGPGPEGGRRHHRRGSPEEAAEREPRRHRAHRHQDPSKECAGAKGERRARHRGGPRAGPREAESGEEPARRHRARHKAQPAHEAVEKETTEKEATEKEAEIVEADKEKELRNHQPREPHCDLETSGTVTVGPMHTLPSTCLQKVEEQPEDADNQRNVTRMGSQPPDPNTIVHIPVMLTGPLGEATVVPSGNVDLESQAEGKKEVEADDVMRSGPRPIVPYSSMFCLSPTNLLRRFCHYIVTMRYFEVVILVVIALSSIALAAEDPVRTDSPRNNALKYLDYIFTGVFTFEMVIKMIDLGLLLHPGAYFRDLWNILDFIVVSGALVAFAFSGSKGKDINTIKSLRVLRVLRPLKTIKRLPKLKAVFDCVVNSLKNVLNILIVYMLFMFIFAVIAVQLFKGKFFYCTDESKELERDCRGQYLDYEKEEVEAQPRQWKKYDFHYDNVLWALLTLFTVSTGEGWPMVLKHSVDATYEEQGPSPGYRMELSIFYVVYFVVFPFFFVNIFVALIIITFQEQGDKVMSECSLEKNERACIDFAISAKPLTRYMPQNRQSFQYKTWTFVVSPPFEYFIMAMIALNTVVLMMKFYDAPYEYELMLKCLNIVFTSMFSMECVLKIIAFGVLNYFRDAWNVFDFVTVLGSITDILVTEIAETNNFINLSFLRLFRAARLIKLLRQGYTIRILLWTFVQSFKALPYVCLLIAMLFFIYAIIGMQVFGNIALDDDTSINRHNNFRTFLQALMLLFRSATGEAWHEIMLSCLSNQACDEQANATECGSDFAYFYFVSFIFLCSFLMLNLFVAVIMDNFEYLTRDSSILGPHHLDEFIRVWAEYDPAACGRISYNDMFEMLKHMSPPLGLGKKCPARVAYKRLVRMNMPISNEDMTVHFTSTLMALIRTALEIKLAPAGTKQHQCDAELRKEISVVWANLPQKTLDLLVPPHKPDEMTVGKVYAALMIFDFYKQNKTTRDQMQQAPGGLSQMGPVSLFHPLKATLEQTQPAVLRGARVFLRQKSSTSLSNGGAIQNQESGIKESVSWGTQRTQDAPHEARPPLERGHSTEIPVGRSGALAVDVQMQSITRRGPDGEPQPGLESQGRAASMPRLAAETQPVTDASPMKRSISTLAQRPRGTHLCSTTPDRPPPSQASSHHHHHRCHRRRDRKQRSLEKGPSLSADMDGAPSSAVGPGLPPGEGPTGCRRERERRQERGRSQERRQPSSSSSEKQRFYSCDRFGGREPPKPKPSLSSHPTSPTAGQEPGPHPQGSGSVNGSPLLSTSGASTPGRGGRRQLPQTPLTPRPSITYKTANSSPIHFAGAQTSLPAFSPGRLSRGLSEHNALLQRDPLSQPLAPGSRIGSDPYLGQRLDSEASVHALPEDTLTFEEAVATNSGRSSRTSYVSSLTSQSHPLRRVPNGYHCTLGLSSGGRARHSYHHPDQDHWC
T3 sequence (Q02410 whole entry): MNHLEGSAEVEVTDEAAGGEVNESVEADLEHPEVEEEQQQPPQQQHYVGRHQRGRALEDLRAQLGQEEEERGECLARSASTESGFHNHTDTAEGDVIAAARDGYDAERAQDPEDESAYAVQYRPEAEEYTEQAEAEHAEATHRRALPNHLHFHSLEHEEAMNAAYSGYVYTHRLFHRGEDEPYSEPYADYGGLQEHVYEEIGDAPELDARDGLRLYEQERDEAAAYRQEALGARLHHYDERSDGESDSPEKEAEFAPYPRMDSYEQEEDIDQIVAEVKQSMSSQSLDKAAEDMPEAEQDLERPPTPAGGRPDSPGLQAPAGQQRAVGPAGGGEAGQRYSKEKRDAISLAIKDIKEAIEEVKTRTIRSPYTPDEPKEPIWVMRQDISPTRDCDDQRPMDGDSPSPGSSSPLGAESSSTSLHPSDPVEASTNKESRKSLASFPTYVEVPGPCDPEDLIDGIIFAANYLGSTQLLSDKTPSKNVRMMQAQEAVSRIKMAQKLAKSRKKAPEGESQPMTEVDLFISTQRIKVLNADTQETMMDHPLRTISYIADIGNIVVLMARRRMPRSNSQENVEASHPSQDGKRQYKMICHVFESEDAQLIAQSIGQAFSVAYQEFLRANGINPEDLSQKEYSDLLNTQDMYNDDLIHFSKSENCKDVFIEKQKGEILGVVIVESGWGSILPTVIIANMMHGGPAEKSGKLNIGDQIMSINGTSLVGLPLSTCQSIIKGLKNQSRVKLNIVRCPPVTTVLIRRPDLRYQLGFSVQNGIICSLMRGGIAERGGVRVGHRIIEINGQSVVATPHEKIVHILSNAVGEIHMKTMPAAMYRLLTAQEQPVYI

[7] = molecular target: T3, Voltage-gated N-type calcium channel alpha-1B subunit/Amyloid beta A4 precursor protein-binding family A member 1; assay type: protein assay; remark: listed apart in the source
[8] = molecular target: Dual specificity protein phosphatase 3 (Homo sapiens, UniProt P51452); experiment: SAR VHR1 Fluorescent Assay for In Vitro dose response studies Set 3. [Related pubchem assays (depositor defined):AID1654, AID1661, AID1878]; assay type: functional
Chain of Dual specificity protein phosphatase 3 (P51452 whole entry): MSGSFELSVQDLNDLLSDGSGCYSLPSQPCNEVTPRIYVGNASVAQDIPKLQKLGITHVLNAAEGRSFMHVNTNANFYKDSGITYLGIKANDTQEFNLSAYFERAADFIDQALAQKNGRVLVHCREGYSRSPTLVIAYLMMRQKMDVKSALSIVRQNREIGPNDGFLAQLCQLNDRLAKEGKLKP

[9] = system: H4; experiment: Inhibitors of Prion Protein 5' UTR mRNA Measured in Cell-Based System Using Plate Reader - 2078-01_Inhibitor_Dose_DryPowder_Activity. [Related pubchem assays (depositor defined):AID488894]; assay type: functional; details: Homo sapiens
[10] = molecular target: Hexokinase-1 (Homo sapiens, UniProt P19367); experiment: hexokinase 1 activity inhibitors, potency – biochemical, set 2, resazurin fluorescence coupled readout, selectivity assay for HKDC1 inhibitor project, SAR follow-up (AID 588356); assay type: functional
Chain of Hexokinase-1 (P19367 whole entry): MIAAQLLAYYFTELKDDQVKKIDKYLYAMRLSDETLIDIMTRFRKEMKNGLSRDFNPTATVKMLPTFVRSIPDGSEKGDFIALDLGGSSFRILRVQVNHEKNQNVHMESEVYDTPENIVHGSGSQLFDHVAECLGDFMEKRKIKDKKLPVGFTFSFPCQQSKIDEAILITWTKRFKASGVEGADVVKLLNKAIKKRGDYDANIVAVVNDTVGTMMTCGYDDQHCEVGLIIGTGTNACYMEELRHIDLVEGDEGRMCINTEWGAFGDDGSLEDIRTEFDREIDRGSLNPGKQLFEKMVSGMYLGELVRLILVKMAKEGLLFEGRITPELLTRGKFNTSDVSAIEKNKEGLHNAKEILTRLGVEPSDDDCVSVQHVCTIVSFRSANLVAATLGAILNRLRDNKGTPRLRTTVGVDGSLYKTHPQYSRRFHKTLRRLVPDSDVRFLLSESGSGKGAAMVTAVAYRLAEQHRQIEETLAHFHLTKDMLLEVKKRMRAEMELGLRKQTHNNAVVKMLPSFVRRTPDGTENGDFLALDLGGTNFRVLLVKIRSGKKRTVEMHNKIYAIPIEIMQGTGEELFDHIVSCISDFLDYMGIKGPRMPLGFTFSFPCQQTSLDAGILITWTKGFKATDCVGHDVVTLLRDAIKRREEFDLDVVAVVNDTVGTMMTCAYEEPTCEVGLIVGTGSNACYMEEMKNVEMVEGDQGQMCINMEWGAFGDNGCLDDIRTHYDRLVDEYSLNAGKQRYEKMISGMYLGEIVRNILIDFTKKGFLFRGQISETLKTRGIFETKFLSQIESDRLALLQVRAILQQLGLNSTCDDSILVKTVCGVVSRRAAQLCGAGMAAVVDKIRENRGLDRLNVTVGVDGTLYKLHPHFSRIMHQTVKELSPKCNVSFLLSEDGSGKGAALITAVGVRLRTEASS

[11] = molecular target: T4, Hexokinase HKDC1 (Homo sapiens, UniProt Q2TB90); experiment: analog inhibition of human HKDC1 activity – biochemical, set 2, SAR follow-up (AID 588355); assay type: functional
T4 sequence (Q2TB90 whole entry): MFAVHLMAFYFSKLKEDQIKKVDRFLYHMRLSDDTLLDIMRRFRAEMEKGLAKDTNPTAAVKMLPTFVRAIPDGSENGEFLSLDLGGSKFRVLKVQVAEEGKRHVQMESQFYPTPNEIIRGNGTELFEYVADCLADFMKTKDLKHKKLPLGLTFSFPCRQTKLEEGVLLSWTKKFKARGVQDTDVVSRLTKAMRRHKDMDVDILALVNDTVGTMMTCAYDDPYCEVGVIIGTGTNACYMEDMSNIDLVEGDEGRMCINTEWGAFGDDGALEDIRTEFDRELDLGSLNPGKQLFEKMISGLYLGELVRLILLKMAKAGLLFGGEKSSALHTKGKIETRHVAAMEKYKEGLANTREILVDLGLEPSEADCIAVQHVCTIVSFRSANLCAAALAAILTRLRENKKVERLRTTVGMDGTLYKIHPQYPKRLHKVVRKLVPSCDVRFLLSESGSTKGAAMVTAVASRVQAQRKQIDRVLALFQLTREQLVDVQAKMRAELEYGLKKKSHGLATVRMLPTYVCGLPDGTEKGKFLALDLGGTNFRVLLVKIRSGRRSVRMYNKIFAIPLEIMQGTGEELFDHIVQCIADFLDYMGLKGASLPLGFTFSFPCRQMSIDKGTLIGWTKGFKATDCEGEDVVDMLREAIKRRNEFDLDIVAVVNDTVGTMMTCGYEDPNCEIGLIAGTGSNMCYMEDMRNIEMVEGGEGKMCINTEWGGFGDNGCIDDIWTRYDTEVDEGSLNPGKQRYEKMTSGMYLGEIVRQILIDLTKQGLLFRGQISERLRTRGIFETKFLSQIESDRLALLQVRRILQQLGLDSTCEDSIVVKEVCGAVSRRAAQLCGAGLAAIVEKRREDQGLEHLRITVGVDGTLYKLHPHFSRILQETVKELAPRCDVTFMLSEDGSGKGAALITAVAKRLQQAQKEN

[12] = molecular target: CAAX prenyl protease 2 (Homo sapiens, UniProt Q9Y256); experiment: inhibition of Ras-converting CAAX protease Rce1 – biochemical, yeast membranes, quenched-peptide fluorescence, cherry-pick, dose response (AID 588849)
[13] = molecular target: Trypsin (Sus scrofa, UniProt P00761); experiment: trypsin protease activity blockade – biochemical, quenched peptide fluorescence, cherry-pick, selectivity assay for Rce1 protease inhibitor project, dose response (AID 488789)
Chain of Trypsin (P00761 whole entry): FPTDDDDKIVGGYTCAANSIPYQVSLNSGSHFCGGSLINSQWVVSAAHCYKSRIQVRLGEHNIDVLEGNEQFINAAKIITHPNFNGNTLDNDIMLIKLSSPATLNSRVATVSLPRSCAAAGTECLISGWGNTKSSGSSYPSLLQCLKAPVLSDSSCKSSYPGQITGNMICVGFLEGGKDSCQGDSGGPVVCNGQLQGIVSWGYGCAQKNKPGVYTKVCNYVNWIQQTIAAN

[14] = system: INS1; experiment: beta-cell survival under cytokine stress – INS-1E, ATP luminescence, dry powder, dose response (AID 488844); assay type: functional, cell-based; details: Rattus norvegicus

C=C(C)C(=O)Nc1cccc(C2=NOC3(C2)C[C@@H](C(N)=O)N(C(=O)CCCCC)C3)c1 (some centres undefined)
EC50 [1]: 0.11 µM (active)
IC50 [2]: 0.9 µM (active)
IC50 [3]: 2.82 µM (active)
EC50 [4]: 2.96 µM (active)
IC50 [5]: > 100 µM (inactive)
IC50 [6]: > 50 µM (inactive)
IC50 [7]: 10.2 µM (active)

COc1ccc(-c2nnc(Nc3nc4c(F)cccc4s3)o2)c(OC)c1
IC50 [8]: 13.7 µM (active)

COc1ccc(NC=C2C(=O)c3ccccc3C2=O)c(OC)c1
AC50 [9]: 1.75 µM (active)

CC(=O)NC1C(=O)N(CCN2CCOCC2)c2ccccc21 (centres undefined)
IC50 [10]: > 80 µM (inactive)
IC50 [11]: > 80 µM (inactive)

Cc1ccnc(SCc2cn3c(C)cc(C)nc3n2)n1
AC50 [12]: > 100 µM (inactive)
AC50 [13]: 20.2 µM (active)

C[C@@H]1CN([C@@H](C)CO)C(=O)c2cccc(NC(=O)Nc3ccccc3)c2O[C@H]1CN(C)S(=O)(=O)c1ccc(F)cc1
AC50 [14]: 61.3 µM (active)
